Activity calls are given as the source filed them.
Legend:
[1] = target: T1, Corticotropin-releasing factor receptor 2/Corticotropin-releasing factor-binding protein (Homo sapiens, UniProt P24387+Q13324); test: activators of CRF receptor 2 with binding protein – uHTS hits, confirmation (AID 602473); type: functional; conditions: read-out: EC50_Mean
T1 sequence (Q13324 whole entry): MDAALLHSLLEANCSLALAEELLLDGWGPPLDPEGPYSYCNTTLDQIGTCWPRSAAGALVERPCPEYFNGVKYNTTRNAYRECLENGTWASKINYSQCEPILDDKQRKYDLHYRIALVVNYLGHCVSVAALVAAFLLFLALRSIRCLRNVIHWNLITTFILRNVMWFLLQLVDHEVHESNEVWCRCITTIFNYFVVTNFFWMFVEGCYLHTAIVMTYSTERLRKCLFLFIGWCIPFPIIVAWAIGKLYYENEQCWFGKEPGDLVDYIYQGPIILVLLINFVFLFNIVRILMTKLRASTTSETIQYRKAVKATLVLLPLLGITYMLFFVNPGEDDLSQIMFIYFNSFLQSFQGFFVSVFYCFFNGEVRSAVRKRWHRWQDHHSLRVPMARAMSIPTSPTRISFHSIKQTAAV
T1 sequence (P24387 whole entry): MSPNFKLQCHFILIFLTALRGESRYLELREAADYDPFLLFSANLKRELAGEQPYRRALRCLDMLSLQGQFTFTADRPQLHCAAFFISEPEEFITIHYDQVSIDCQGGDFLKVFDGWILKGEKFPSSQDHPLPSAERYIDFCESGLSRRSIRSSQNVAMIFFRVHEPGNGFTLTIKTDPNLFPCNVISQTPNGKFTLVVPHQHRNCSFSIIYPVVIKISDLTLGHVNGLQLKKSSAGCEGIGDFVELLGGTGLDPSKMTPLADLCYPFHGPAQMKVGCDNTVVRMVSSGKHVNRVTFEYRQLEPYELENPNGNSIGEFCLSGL

[2] = target: T1, Corticotropin-releasing factor receptor 2/Corticotropin-releasing factor-binding protein; test: Dose Response confirmation of uHTS hits for small molecule antagonists of the CRF-binding protein and CRF-R2 receptor complex.; type: functional; conditions: read-out: IC50_Mean
[3] = test system: H9c2; test: cells; type: functional, cell-based; conditions: Rattus norvegicus, H9c2, Myocardium;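 also: confirmatory concentration-response retest of ultra-high-throughput screening hits for modulation of myocardial damage; cell death induced by hydrogen peroxide oxidative stress; compound pretreatment for 60 min then peroxide exposure for 2 h; potency is for protecting the cells against peroxide damage rather than for killing them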
[4] = target: T2, Ubiquitin-conjugating enzyme E2 N (Homo sapiens, UniProt P61088); type: functional;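 also: Dose-response confirmation in a TR-FRET assay detecting UBC13-driven polyubiquitin chain formation, inhibition measured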
T2 sequence (P61088 whole entry): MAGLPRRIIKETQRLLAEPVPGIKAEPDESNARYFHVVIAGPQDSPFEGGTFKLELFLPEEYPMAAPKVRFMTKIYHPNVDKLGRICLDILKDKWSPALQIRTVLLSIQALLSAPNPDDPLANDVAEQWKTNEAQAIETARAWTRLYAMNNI

[5] = Luminescence Cell-Based Dose Confirmation HTS to Identify Activators of 5'UTR Stem-Loop Driven Alpha-Synuclein mRNA Translation in H4 Neuroglioblastoma Cells. [Related pubchem assays: 1829 (Project Summary), 1814 (Primary HTS)]; type: functional
[6] = test system: H4; test: Luminescence Cell-Based Dose Response HTS to Identify Activators of 5'UTR Stem-Loop Driven Prion Protein mRNA Translation in H4 Neuroglioblastoma Cells. [Related pubchem assays: 1829 (Project Summary), 1814 (Primary HTS)]; type: functional; conditions: Homo sapiens
[7] = Luminescence Cell-Based Dose Response HTS to Identify Activators of Luciferase Translation or Activity in H4 […] Cells. [Related pubchem assays: 1829 (Project Summary), 1814 (Primary HTS)]; type: functional
[8] = target: Cytochrome P450 2C9 (Homo sapiens, UniProt P11712)
[9] = test system: INS1; test: INS-1E survival protection against cytokine death – cell-based, luminescence, retest, dose response (AID 449756); type: functional; conditions: Rattus norvegicus;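 also: cell death triggered by IL-1 beta plus TNF-alpha plus IFN-gamma mixture; protective hits raise ATP signal compared with cytokine alone wells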
[10] = viability of uninfected HEp-2 cells – cell-based, HTS, cytotoxicity control for RSV inhibitor project, dose response (AID 2410); type: functional; conditions: human respiratory syncytial virus
[11] = target: T3, Heat shock factor protein 1 (Mus musculus, UniProt P38532); test: decrease of HSF1-responsive luciferase luminescence – cell-based, NIH3T3, dose retest, confirmation (AID 2382); type: functional;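 also: NIH3T3 fibroblasts with HSF1-driven luciferase reporter stressed by proteasome inhibitor MG132; luminescence from HSF1-driven luciferase expression after 8 hours of MG132 stress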
T3 sequence (P38532 whole entry): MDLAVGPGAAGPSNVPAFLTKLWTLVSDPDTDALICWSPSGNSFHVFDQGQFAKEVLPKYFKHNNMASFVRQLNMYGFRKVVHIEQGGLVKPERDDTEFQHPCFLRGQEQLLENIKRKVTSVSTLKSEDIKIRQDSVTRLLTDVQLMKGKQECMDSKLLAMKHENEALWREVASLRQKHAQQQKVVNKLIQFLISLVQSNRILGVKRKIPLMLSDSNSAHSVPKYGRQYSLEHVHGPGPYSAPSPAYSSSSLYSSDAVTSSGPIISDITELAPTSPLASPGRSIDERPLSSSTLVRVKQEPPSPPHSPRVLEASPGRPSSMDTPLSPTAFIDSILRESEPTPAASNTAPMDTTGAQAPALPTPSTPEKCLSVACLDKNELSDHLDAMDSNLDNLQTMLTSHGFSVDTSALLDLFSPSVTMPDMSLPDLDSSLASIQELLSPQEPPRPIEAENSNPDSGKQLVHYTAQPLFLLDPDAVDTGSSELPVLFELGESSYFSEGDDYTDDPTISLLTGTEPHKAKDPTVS

[12] = cells; type: functional
[13] = Vero E6 cell cytotoxicity, dose response, cytotoxicity control for non-replicating M. tuberculosis project, secondary assay (AID 492998); type: functional, VeroE6; conditions: Vero C1008

Chain of Cytochrome P450 2C9 (P11712 whole entry): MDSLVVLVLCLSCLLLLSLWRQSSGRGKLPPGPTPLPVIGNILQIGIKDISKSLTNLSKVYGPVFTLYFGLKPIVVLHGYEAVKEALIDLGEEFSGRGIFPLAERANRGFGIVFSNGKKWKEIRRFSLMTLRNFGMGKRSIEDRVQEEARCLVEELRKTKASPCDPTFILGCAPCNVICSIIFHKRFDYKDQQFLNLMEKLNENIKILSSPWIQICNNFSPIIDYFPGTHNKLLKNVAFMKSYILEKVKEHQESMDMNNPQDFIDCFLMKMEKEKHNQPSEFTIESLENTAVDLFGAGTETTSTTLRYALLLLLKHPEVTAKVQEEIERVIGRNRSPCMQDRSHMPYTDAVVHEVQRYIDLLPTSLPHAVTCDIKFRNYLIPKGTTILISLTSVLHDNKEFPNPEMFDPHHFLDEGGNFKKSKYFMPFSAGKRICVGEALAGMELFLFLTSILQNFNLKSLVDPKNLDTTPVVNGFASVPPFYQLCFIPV

## CSC1=NCCN1C(=O)Cc1ccc(Cl)cc1
[1]
  EC50: > 53 µM (inactive)
[2]
  IC50: > 47.1 µM (inactive)

## COc1cc(OC)c(-c2nn3c(-c4ccco4)nnc3s2)cc1OC
[3]
  IC50: > 79 µM (inactive)

## CN(C)CCNc1ccc(-c2nnc(O)c3ccccc23)cc1[N+](=O)[O-]
[3]
  IC50: > 79 µM (inactive)

## Nc1c(C(=O)N2CCOCC2)sc2nc3c(cc12)CCC3
[1]
  EC50: > 53 µM (inactive)
[2]
  IC50: > 47.1 µM (inactive)

## CC(C)N1CCc2c(sc(NC(=O)c3ccc(S(=O)(=O)N4CCc5ccccc54)cc3)c2C(N)=O)C1
[4]
  IC50: > 20 µM (inactive)

## COc1ccc(-c2nnc3c4ccccc4c(C)nn23)cc1
[5]
  EC50: 13.3 µM (active)
[6]
  EC50: > 120 µM (not active)
[7]
  EC50: 18.6 µM (active)

## O=C(Cn1[nH]c(=O)c2ccccc2c1=O)OCC(=O)N(Cc1ccccc1)Cc1ccccc1
[3]
  IC50: 36 µM (inactive)

## O=C(O)c1nn(CCOc2ccccc2F)c(=O)c2ccccc12
[3]
  IC50: > 79 µM (inactive)

## COc1cc(-c2cc(NC(C)=O)c3ncc(-c4ccc(C(C)=O)cc4)n3c2)cc(OC)c1OC
[3]
  IC50: > 79 µM (inactive)

## CCCCC/N=C(/C)c1c(O)oc2ccccc2c1=O
[5]
  EC50: > 120 µM (not active)
[6]
  EC50: 9.36 µM (active)
[7]
  EC50: 61.4 µM (active)

## CC(=O)/N=c1/sc(S(N)(=O)=O)nn1C [METHAZOLAMIDE]
[1]
  EC50: > 53 µM (inactive)
[8]
  AC50: 12.6 µM (inconclusive)
[2]
  IC50: > 47.1 µM (inactive)

## COCCNC(=O)CSC1=N/C(=C/c2ccc(Cl)c(Cl)c2)C(=O)N1c1ccccc1F
[9]
  AC50: 8.64 µM (active)
[10]
  CC50: 47.8 µM (active)
[11]
  EC50: 20 µM (active)

## CCCC12C(=O)C(C)(C(c3ccccc3)=C1c1ccccc1)C1C(=O)N(c3ccc(C)cc3)C(=O)C12 (centres undefined)
[9]
  AC50: 4.16 µM (active)

## COc1cccc(CNc2nc(-c3cccnc3)nc3ccccc23)c1
[1]
  EC50: > 53 µM (inactive)
[2]
  IC50: > 47.1 µM (inactive)
[4]
  IC50: > 20 µM (inactive)

## Cc1nc2cc(NC(=O)c3ccc(S(=O)(=O)N(C)c4ccccc4)cc3)ccc2o1
[5]
  EC50: 26 µM (active)
[6]
  EC50: 15.1 µM (active)
[7]
  EC50: 23.9 µM (active)

## c1ccc(Nc2nc(-c3ccccn3)cs2)cc1
[12]
  IC50: 0.19 µM (active)
[13]
  CC50: > 20 µM (active)

## c1ccc2oc(C3=NN=C(NC4CC4)SC3)cc2c1
[5]
  EC50: > 120 µM (not active)
[6]
  EC50: > 120 µM (not active)
[7]
  EC50: > 120 µM (not active)
